Columns and labels:
Assay in all cases: Bliss excess, mean over the matrix (fraction); higher = more synergy
[1] = system: TE-5 (Esophageal Squamous Cell Carcinoma)
Outline: (§1)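 After 24 hours at 37°C and 5% CO2 in 1536-well plates, cells in DMEM/F12 or RPMI plus 10% FBS received two-drug dose matrices for 72 hours. Viability came from CellTiter-Glo 2.0 luminescence and was scaled as inhibition, anchored at 0 by vehicle wells and at 1 by blank wells. Combination Emax is taken as the second-highest inhibition in the matrix, and Bliss excess as the observed combination effect less EA + EB − EA·EB, with EA and EB the single-agent effects.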

[2] = system: MDA-MB-231 (Breast Carcinoma)
Outline: as §1

[3] = system: SW780 (Bladder Carcinoma)
Outline: as §1

[4] = system: LS-513 (Colorectal Carcinoma)
Outline: as §1

ES7 (Ewing's Sarcoma) = system: ES7 (Ewing's Sarcoma)
Outline: as §1

[5] = system: NCI-H1793 (Lung Adenocarcinoma)
Outline: as §1

SK-N-FI (Neuroblastoma) = system: SK-N-FI (Neuroblastoma)
Outline: as §1

[6] = system: MDA-MB-157 (Breast Carcinoma)
Outline: as §1

NCI-H2369 (Mesothelioma) = system: NCI-H2369 (Mesothelioma)
Outline: as §1

[7] = system: DOV13 (Ovarian Carcinoma)
Outline: as §1

IGR-1 (Melanoma) = system: IGR-1 (Melanoma)
Outline: as §1

[8] = system: JiyoyeP-2003 (Burkitt's Lymphoma)
Outline: as §1

CAL-78 (Chondrosarcoma) = system: CAL-78 (Chondrosarcoma)
Outline: as §1

[9] = system: COR-L23 (Non-Small Cell Lung Carcinoma)
Outline: as §1

[10] = system: MFH-ino (Other Solid Carcinomas)
Outline: as §1

[11] = system: NCI-H1781 (Lung Adenocarcinoma)
Outline: as §1

[12] = system: DMS-273 (Small Cell Lung Carcinoma)
Outline: as §1

[13] = system: HCC2157 (Breast Carcinoma)
Outline: as §1

DSH1 (Bladder Carcinoma) = system: DSH1 (Bladder Carcinoma)
Outline: as §1

[14] = system: SW1088 (Low Grade Glioma)
Outline: as §1

Row | Structure (SMILES) | Bliss excess [1] | Bliss excess [2] | Bliss excess [3] | Bliss excess [4] | Bliss excess (ES7 (Ewing's Sarcoma)) | Bliss excess [5] | Bliss excess (SK-N-FI (Neuroblastoma)) | Bliss excess [6] | Bliss excess (NCI-H2369 (Mesothelioma)) | Bliss excess [7] | Bliss excess (IGR-1 (Melanoma)) | Bliss excess [8] | Bliss excess (CAL-78 (Chondrosarcoma)) | Bliss excess [9] | Bliss excess [10] | Bliss excess [11] | Bliss excess [12] | Bliss excess [13] | Bliss excess (DSH1 (Bladder Carcinoma)) | Bliss excess [14]
1 | CS(=O)(=O)CCNCc1ccc(-c2ccc3ncnc(Nc4ccc(OCc5cccc(F)c5)c(Cl)c4)c3c2)o1 [Lapatinib] + C[C@@H](Oc1cc(-c2cnn(C3CCNCC3)c2)cnc1N)c1c(Cl)ccc(F)c1Cl [Crizotinib] (first compound max 10 µM, 7x7, partner max 10 µM) | -0.0054 | -0.042 | -0.0364 | -0.023 | -0.0214 | -0.0351 | -0.0365 | -0.0086 | -0.0253 | -0.0621 | -0.0282 | -0.0186 | -0.072 | -0.0296 | -0.0902 | -0.0715 | 0.0146 | -0.0482 | 0.0668 | -0.0612
2 | COc1cccc(OCCCN)c1-c1cc(Nc2cnc(C#N)cn2)n[nH]1 [Prexasertib] + CCc1c2c(nc3ccc(O)cc13)-c1cc3c(c(=O)n1C2)COC(=O)[C@]3(O)CC [SN-38] (first compound max 1 µM, 7x7, partner max 0.3 µM) | -0.0476 | 0.0723 | -0.0348 | -0.0691 | -0.012 | -0.0209 | 0.0093 | 0.0027 | 0.0148 | -0.0444 | 0.0316 | 0.0073 | -0.0348 | 0.0388 | -0.0321 | -0.0105 | 0.0356 | 0.0649 | 0.0128 | 0.0128
3 | Cc1c2c(nn1C)CSCc1cc(n(C)n1)CSc1cc(c3ccccc3c1)OCCCc1c(C(=O)O)n(C)c3c-2c(Cl)ccc13 [AZD5991] + C=CCn1c(=O)c2cnc(Nc3ccc(N4CCN(C)CC4)cc3)nc2n1-c1cccc(C(C)(C)O)n1 [AZD1775] (first compound max 1 µM, partner max 1 µM) | 0.0264 | -0.0812 | 0.0046 | -0.0115 | 0.0155 | -0.0329 | -0.0478 | 0.001 | 0.0049 | -0.038 | 0.061 | -0.0253 | -0.0193 | -0.0079 | 0.0604 | -0.054 | -0.0476 | -0.0438 | -0.0115 | -0.0307
4 | Cn1cnc2c(F)c(Nc3ccc(Br)cc3Cl)c(C(=O)NOCCO)cc21 [Selumetinib] + C=CCn1c(=O)c2cnc(Nc3ccc(N4CCN(C)CC4)cc3)nc2n1-c1cccc(C(C)(C)O)n1 [AZD1775] (first compound max 10 µM, partner max 1 µM) | -0.0514 | -0.0337 | -0.0555 | -0.0339 | -0.0548 | -0.0764 | -0.0433 | 0.0096 | -0.0624 | -0.0631 | 0.0466 | -0.0563 | -0.07 | 0.0308 | -0.0316 | -0.063 | 0.0035 | 0.0111 | -0.0355 | -0.0468
5 | Cc1cc2ncnn2cc1Nc1ncc2c(n1)n(C1CCOCC1)c(=O)n2C [AZD7648] + C=CCn1c(=O)c2cnc(Nc3ccc(N4CCN(C)CC4)cc3)nc2n1-c1cccc(C(C)(C)O)n1 [AZD1775] (first compound max 10 µM, partner max 1 µM) | -0.0386 | 0.0218 | 0.0146 | -0.023 | -0.0044 | 0.0622 | -0.0415 | 0.0003 | 0.0034 | -0.0795 | -0.0255 | 0.0246 | -0.0147 | -0.0588 | 0.0118 | -0.0222 | -0.0349 | -0.0133 | 0.0281 | -0.0479
6 | CC(=O)c1c(C)c2cnc(Nc3ccc(N4CCNCC4)cn3)nc2n(C2CCCC2)c1=O [Palbociclib] + CC1(C)CCC(CN2CCN(c3ccc(C(=O)NS(=O)(=O)c4ccc(NCC5CCOCC5)c([N+](=O)[O-])c4)c(Oc4cnc5[nH]ccc5c4)c3)CC2)=C(c2ccc(Cl)cc2)C1 [Venetoclax] (first compound max 10 µM, 7x7, partner max 1 µM) | -0.0558 | -0.0242 | -0.0395 | 0.0202 | 0.0277 | -0.0136 | 0.0104 | -0.0348 | -0.0543 | 0.0125 | -0.0267 | 0.0975 | -0.0333 | -0.0429 | -0.0576 | -0.045 | -0.0263 | 0.0389 | -0.0361 | -0.018
7 | CN(C)CCCOc1ccc(-c2ccc3ncc4c(c3c2)n(C2CCOCC2)c(=O)n4C)cn1 [AZD0156] + O=C(c1cc(Cc2n[nH]c(=O)c3ccccc23)ccc1F)N1CCN(C(=O)C2CC2)CC1 [Olaparib] (first compound max 3 µM, partner max 3 µM) | -0.0241 | 0.0221 | -0.0007 | 0.0071 | 0.291 | 0.0074 | -0.0123 | -0.0302 | -0.0455 | 0.0258 | -0.0006 | 0.007 | 0.0042 | -0.0155 | -0.061 | 0.0077 | 0.155 | 0.0313 | 0.0328 | 0.022
8 | Cn1cnc2c(F)c(Nc3ccc(Br)cc3Cl)c(C(=O)NOCCO)cc21 [Selumetinib] + CC(C)n1c(=O)n(C)c2cnc3cc(F)c(-c4ccc(OCCCN5CCCCC5)nc4)cc3c21 [AZD1390] (first compound max 10 µM, 7x7, partner max 0.3 µM) | -0.0317 | 0.0101 | -0.0542 | -0.0395 | -0.0301 | -0.0503 | -0.0208 | -0.032 | -0.0442 | -0.0576 | -0.0297 | -0.0153 | -0.0665 | -0.0251 | -0.023 | -0.0223 | -0.0103 | 0.002 | -0.0002 | -0.0368

Reference: the supplement of paper PMC11061612
